Tested on: B16/F0 murine melanoma
Assay: In-vivo tumor uptake and biodistribution
Design: species or system C57B16 mice
Conditions: mouse, in vivo
Description: In-Vivo Tumor Uptake. To study the tumor uptake of ^99mTc-complexes, Tc-(Compound A-D and J-K), in vivo, biodistribution experiments at 1 h and 6 h after their administration were carried out in C57B16 mice with palpable B16 melanoma nodules. The biodistribution data including melanoma/nontumor (M/NT) ratios for selected organs are summarized in Table 4 and 5 as percentage injected dose per gram ([…]).
Animal Studies. All animal experiments were performed in compliance with the Principles of Laboratory Animal Care (NIH publication #85-23, revised 1985). Biodistribution studies and tumor-uptake measurements were performed in C57B16 mice (15 to 20 g) bearing the B16/F0 murine melanoma on the hind limb. See for example the studies described in, which are hereby incorporated by reference, Brandau, W.; Niehoff, T.; Pulawski, P.; Jonas, M.; Dutschka, K.; Sciuk, J.; Coenen, H. H.; Schober, O. Structure Distribution Relationship of Iodine-123-Iodobenzamides as Tracers for the Detection of Melanotic Melanoma. J. Nucl. Med. 1996, 37, 1865-1871; Mohanmmed, A.; Nicholl, C.; Titsch, U.; Eisenhut, M. Radiojodinated N-(Alkylaminoalkyl)-Substituted 4-Methoxy-, 4-Hydroxy-, and 4-Aminobenzamides: Biological Investigations for the Improvement of Melanoma-Imaging Agents. Nucl. Med. Biol. 1997, 24, 373-380; Titsch, U.; Mohammed, A.; Wagner, S.; Oberdorfer, F.; Eisenhut, M. Syntheses of N-(2-Diethylaminoethyl)benzamides Suitable for ^99mTc Complexation. J. Labelled Compd. Radiopharm. 1997, 40, 416-418; Dittmann, H.; Coenen, H. H.; Zölzer, F.; Dutschka, K.; Brandau, W.; Streffer, C. In Vitro Studies on the Cellular Uptake of Melanoma Imaging Aminoalkyl-iodobenzamide Derivatives (ABA). Nucl. Med. Biol. 1999, 26, 51-56; and Michelot, J. M.; Moreau, M. F. C.; Veyre, A. J.; Bonafous, J. F.; Bacin, F. J.; Madelmont, J. C.; Bussiere, F.; Souteyrand, P. A.; Mauclaire, L. P.; Chossat, F. M.; Papon, J. M.; Labarre, P. G.; Kauffmann, Ph.; Plagne, R. J. Phase II Scintigraphic Clinical Trial of Malignant Melanoma and Metastases with Iodine-123-N-(2-Diethylaminoethyl 4-Iodobenzamide). J. Nucl. Med. 1993, 34, 1260-1266. The tumor cells (B16/F0), obtained from ATCC, were washed with PBS and transplanted subcutaneously on the left hind flank by an inoculation of 0.5×10^6 cells (0.1 mL). Ten to 14 days later the animals developed palpable tumor nodules 3 to 5 mm in diameter. The biodistribution studies were carried out by tail-vein injection of 25 to 30 μCi (0.05 to 0.1 mL) of the ^99mTc-labeled complexes Tc-(Compound A-D, H, J, K or M). At the designated time after tail-vein administration, the animals were weighed and sacrificed. The organs and tumors were harvested and, when appropriate, blotted dry, weighed, and counted in a gamma counter along with technetium-99m standards of the injected dose. The results are expressed as % ID/g tissue (Table 4 and 5)

Structure (SMILES): CCCCN(CCCC)CCN1CC[S][99Tc]2(=[O])[S]CC[N]2C(=O)C1 (stereo not shown) [Tc-(Compound B)]
- mel/lung ratio: 2.1

Reference: patent US7321027B2, “Small technetium-99m and rhenium labeled agents and methods for imaging tumors” (President and Fellows of Harvard College, priority 2000, dated 2008)
